1 molecule from US12599676B2, “Cytotoxic imidazo[1,2-A]pyridine compounds and their use in therapy” (MyricX Pharma Limited, priority 2022, dated 2026) can be followed below.

For data set [1], the system named is MX-1 (human breast carcinoma). As to the kind of experiment: Cell cytotoxicity CellTiter-Glo, MX-1. The class given is cell-based. The note with it: MX1. The protocol: (§1) Cells were seeded in 96-well microplates and treated with compounds or cisplatin (as a positive control) at 9 increasing concentrations in technical triplicate. […] On day 1, 90 μL of various cell suspensions with the number of cells ranging from 5000-8000 cells/well were seeded into wells of a 96-well plate (Corning). The number of cells to be seeded was previously determined. • 2. All 96-wells plates with cells were placed in an incubator overnight at 37° C. with 5% CO2. • 3. On day 2, cells were observed under a microscope ensuring the cells treated with vehicle control were in good condition. • 4. A dilution series of the test compounds and cisplatin were prepared at 10× the final concentrations required. 10 μL/well of 10× compound solution was added to the corresponding plates. The final volume was 100 μL/well for all the plates. Final DMSO concentration was 0.1%. • 5. On day 5 (after 72 hours of incubation), 50 μL of CTG reagent was added to each well. • 6. Contents were mixed for 5 minutes on an orbital shaker to facilitate cell lysis. • 7. The plate was allowed to incubate at room temperature for 10 minutes to stabilize luminescent signals. […]

The test system of data set [2] is HT1080 (human fibrosarcoma). Description: Cell cytotoxicity CellTiter-Glo, HT1080. The settings on record: HT-1080. The data set is classed as cell-based. As for the experimental part: as §1
Data set [3] in a line: Caco-2 cell permeability assay. The data set is classed as in vitro ADME. The note with it: human, Caco-2, pH 7.4, basal to apical Papp, pH 7.4, 2.5 h. In a few lines: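 Caco-2 monolayers grown 10 days were dosed at 2 μM (1% DMSO) on the donor side in HBSS/10 mM HEPES pH 7.4, for both AB and BA directions, then incubated 2.5 h at 37 °C without shaking. Donor and acceptor samples were quantified by LC-MS/MS to give Papp. Wells that failed a Lucifer Yellow integrity check (>1% passage) were excluded.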

Regarding `Cc1c(CCOc2cc(Cl)ccc2-c2ccc3ncc(CCN)n3c2)c(C(=O)N(C)C)nn1C` [Comparator Compound 1, 4-(2-{2-[3-(2-aminoethyl)imidazo[1,2-a]pyridin-6-yl]-5-chlorophenoxy}ethyl)-N,N,1,5-tetramethyl-1H-pyrazole-3-carboxamide, reference compound], the IC50 in data set [1] was 0.04 µM; in data set [2], 0.0064 µM. The apparent permeability from basolateral to apical (Papp B→A) at 2.5 h, 2 μM in data set [3] came to 9.1 ×10⁻⁶ cm/s.
